Assays:
DYRK1A kinase = DYRK1A kinase (Homo sapiens, UniProt Q13627); test: DYRK1A kinase activity (Ser/Thr 18 peptide Z-lyte FRET assay); type: biochemical; details: recombinant DYRK1A, 30 μM ATP, one hour at room temperature;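 note: kinase activity read as coumarin/fluorescein emission ratio after development step, with unphosphorylated and phosphorylated peptide forms setting 0% and 100% controls, values from dose-response curves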
GSK3β kinase = GSK3β kinase (Homo sapiens, UniProt P49841); test: GSK3β kinase activity (Ser/Thr 09 peptide Z-lyte FRET assay); type: biochemical; details: recombinant kinase, 46 μM ATP, one hour at room temperature; read-out: EC50
GSK3β kinase, sequence (P49841 whole entry): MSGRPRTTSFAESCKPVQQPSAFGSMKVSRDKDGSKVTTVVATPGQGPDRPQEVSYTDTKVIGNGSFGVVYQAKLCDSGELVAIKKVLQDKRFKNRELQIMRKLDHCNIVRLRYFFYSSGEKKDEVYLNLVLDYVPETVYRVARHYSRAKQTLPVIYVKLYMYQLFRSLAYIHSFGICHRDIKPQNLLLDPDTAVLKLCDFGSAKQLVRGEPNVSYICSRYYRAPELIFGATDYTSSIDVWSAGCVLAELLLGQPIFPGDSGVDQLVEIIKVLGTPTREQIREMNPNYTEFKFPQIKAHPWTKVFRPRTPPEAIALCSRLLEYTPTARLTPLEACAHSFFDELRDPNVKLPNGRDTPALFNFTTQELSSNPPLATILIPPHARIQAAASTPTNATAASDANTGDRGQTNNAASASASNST
Description: Each compound is dissolved in DMSO as a 10 mM stock and used to prepare compound source plates. Serial dilution (1:3, 11-point dose-response curves from 10 μM to 0.0003 μM) and compound transfer was performed using the ECHO 550 (Labcyte, Sunnyvale, Calif.) into 1536-well black-walled round bottom plates (Corning).
This is a non-radioactive assay using fluorescence resonance energy transfer (FRET) between coumarin and fluorescein to detect kinase activity which is represented as ratio of coumarin emission/fluorescein emission.
The mixture is allowed to incubate with the representative compounds for one hour at room temperature. All reactions were performed in duplicate. Unphosphorylated (“0% Control”) and phosphorylated (“100% control”) forms of Ser/Thr 18 serve as control reactions.
After incubation, diluted Development Buffer is added to the reaction and allowed to further incubate for one hour at room temperature.
Dose-response curves are generated and inhibitory concentration (IC50) values are calculated using non-linear regression curve fit in the Dotmatics' Studies Software (Bishops Stortford, UK).

[1] = system: SW480 colon carcinoma cells; test: Cell viability assay (CellTiter-Glo); details: for inhibition at 10 µM: SW480, read-out: percent inhibition at 10 μM
Description: Representative compounds were screened using the assay procedure to assess the effect on cell viability as described below.
SW480 colon carcinoma cells were transduced with a lentiviral vector expressing luciferase with a human Sp5 promoter consisting of a sequence of eight TCF/LEF binding sites. […] These stably transduced SW480 cells were expanded in cell culture and used for all further screening activities. Each compound was dissolved in DMSO as a 10 mM stock and used to prepare compound source plates.
For the Cell Viability Assays, the cells were plated at 2,000 cells/well in 384-well plates with a DMEM medium containing 1% fetal bovine serum, and 1% Penicillin-Streptomycin and incubated for four days hours at 37° C. and 5% CO2. Eight replicates of DMSO-treated cells served as controls and cells treated with compound were performed in duplicate.
After incubation, 10 μL of CellTiter-Glo (Promega) was added to each well allowed to incubate for approximately 12 minutes. This reagent “results in cell lysis and generation of a luminescent signal proportional to the amount of ATP present. The amount of ATP is directly proportional to the number of cells present in culture, in agreement with previous reports. The CellTiter-Glo Assay generates a “glow-type” luminescent signal, produced by the luciferase reaction (Promega.com)”.
Dose-response curves were generated and EC50 concentration values were calculated using non-linear regression curve fit in the GraphPad Prism (San Diego, Calif.) or Dotmatics' Studies Software (Bishops Stortford, UK).

[2] = system: Wnt-responsive Sp5-Luc reporter in SW480 colon carcinoma cells; test: Screening assay for Wnt activity (Sp5-Luc reporter gene assay); details: for inhibition at 10 µM: SW480, read-out: percent inhibition at 10 μM
IL-6 = IL-6 inhibition in LPS-stimulated human peripheral blood mononuclear cells (HTRF); details: for inhibition at 10 µM: read-out: percentage in parentheses after EC50 >10
[3] = system: α-smooth muscle actin (aSMA) positive LL29 cells; test: Inhibition of the fibrotic process: αSMA staining in TGF-β1 treated LL29 fibroblasts from IPF patients; details: for inhibition at 10 µM: read-out: percentage in parentheses after EC50 >10

Row | SMILES | EC50 (DYRK1A kinase) [µM] | EC50 (GSK3β kinase) [µM] | EC50 ([1]; Homo sapiens, SW480, 96 h) [µM] | EC50 ([2]; Homo sapiens, SW480) [µM] | EC50 (IL-6; Homo sapiens, PBMC, 22 h) [µM] | EC50 ([3]; Homo sapiens, Fibroblast, 96 h) [µM] | inhibition at 10 µM ([2]; Homo sapiens) [%] | inhibition at 10 µM (IL-6; Homo sapiens, PBMC) [%] | EC50 ([1]; SW480 cells, four days, CellTiter-Glo) [µM] | percent inhibition at 10 μM ([1]; at 10 μM, given for EC50 of >10 μM, SW480 cell viability) [%] | EC50 ([2]; SW480 Sp5-Luc reporter cells, 36 to 48 hours) [µM] | EC50 (IL-6; huPBMCs, LPS 50 ng/mL, 22 hours, curves starting from 10 μM) [µM] | percentage in parentheses after EC50 >10 (IL-6; huPBMCs, LPS, given beside >10 μM, meaning not given) [%] | EC50 ([3]; LL29 fibroblasts from IPF patients, TGF-β1 20 ng/mL, 4 days, curves from 10 μM to 0.94 nM) [µM] | percentage in parentheses after EC50 >10 ([3]; LL29 fibroblasts, TGF-β1, given beside >10 μM, meaning not given) [%] | inhibition at 10 µM ([1]; Homo sapiens) [%] | inhibition at 10 µM ([3]; Homo sapiens, Fibroblast) [%]
1 | CCN(CC)CC(=O)Nc1cc2nc(-c3cnn(C)c3CN3CCCCC3)ccc2cn1 [Compound 283, 2-(Diethylamino)-N-(2-(1-methyl-5-(piperidin-1-ylmethyl)-1H-pyrazol-4-yl)-1,6-naphthyridin-7-yl)acetamide] | 0.698 | 1.18 | 4.24 | > 10 | > 10 | 3.91 | 43.6 | 7.4 |  |  |  |  |  |  |  |  | 
2 | Cn1cc(-c2ccc3cnc(NC(=O)C(C)(C)F)cc3n2)nn1 [Compound 333] |  |  |  |  |  |  |  |  | > 10 | 35.6 | 0.504 | > 10 | 5.4 | > 10 | 25.2 |  | 
3 | Cn1cc(-c2ccc3cnc(NC(=O)C4CCN(CC5(C(F)(F)F)CC5)CC4)cc3n2)nn1 [Compound 347, N-(2-(1-Methyl-1H-1,2,3-triazol-4-yl)-1,6-naphthyridin-7-yl)-1-((1-(trifluoromethyl)cyclopropyl)methyl)piperidine-4-carboxamide] | 9.99 | > 10 | > 10 | > 10 | > 10 | > 10 | 28.7 | 4 |  |  |  |  |  |  |  | 10.7 | 20.7
4 | Cn1cncc1-c1ccc2cnc(NC(=O)c3ccc(F)cc3)cc2n1 [Compound 448, 4-Fluoro-N-(2-(1-methyl-1H-imidazol-5-yl)-1,6-naphthyridin-7-yl)benzamide] | > 10 | > 10 | > 10 | > 10 | 5.13 | > 10 | 2.8 |  |  |  |  |  |  |  |  | 16.2 | 23
5 | Cc1ncc(-c2ccc3cnc(NC(=O)N4CCC(N(C)C)CC4)cc3n2)s1 [Compound 662, 4-(Dimethylamino)-N-(2-(2-methylthiazol-5-yl)-1,6-naphthyridin-7-yl) piperidine-1-carboxamide] | > 10 | > 10 | > 10 | > 10 | > 10 | 7.65 | 26 | 10.5 |  |  |  |  |  |  |  | 17.3 | 
6 | O=C(Nc1cc2nc(-c3cncc(OCC4CNC4)n3)ccc2cn1)c1ccc(F)cc1 [Compound 892, N-(2-(6-(Azetidin-3-ylmethoxy)pyrazin-2-yl)-1,6-naphthyridin-7-yl)-4-fluorobenzamide] | 0.142 | > 10 | 2.06 | 4.28 | > 10 | 3.98 |  | 2.5 |  |  |  |  |  |  |  |  | 
7 | CC(C(=O)Nc1ncc2ccc(-c3cnn(C)c3)cc2n1)N1CCCCC1 (stereo not drawn) [Compound 978, N-(7-(1-Methyl-1H-pyrazol-4-yl)quinazolin-2-yl)-2-(piperidin-1-yl)propanamide] | 0.171 | 0.087 | > 10 | > 10 | > 10 | 2.73 | 37.2 | 6.9 |  |  |  |  |  |  |  | 50 | 
8 | Cn1cc(-c2ccc3cnc(NC(=O)C4CCN(S(C)(=O)=O)CC4)nc3c2)cn1 [Compound 979, N-(7-(1-methyl-1H-pyrazol-4-yl)quinazolin-2-yl)-1-(methylsulfonyl)piperidine-4-carboxamide] | > 10 | > 10 | > 10 | > 10 | > 10 | > 10 | 20.3 | 6.4 |  |  |  |  |  |  |  | 16.7 | 23.2
9 | CN1CCCN(CC(=O)Nc2ncc3ccc(-c4cnn(C)c4)cc3n2)CC1 [Compound 1013, 2-(4-Methyl-1,4-diazepan-1-yl)-N-(7-(1-methyl-1H-pyrazol-4-yl)quinazolin-2-yl)acetamide] | 0.075 | 0.532 | > 10 | > 10 | > 10 | > 10 | 0 | 3.1 |  |  |  |  |  |  |  | 10.5 | 12.4
10 | CC(C)CN1CCC(CC(=O)Nc2ncc3ccc(-c4cnn(C)c4)cc3n2)C1 (stereo not drawn) [Compound 1029, 2-(1-Isobutylpyrrolidin-3-yl)-N-(7-(1-methyl-1H-pyrazol-4-yl)quinazolin-2-yl)acetamide] | 0.045 | 0.238 | > 10 | 2.91 | > 10 | > 10 |  | 3.2 |  |  |  |  |  |  |  | 38.5 | 28

Now from value to compound, other results behind:

Row | EC50 (DYRK1A kinase) [µM] | EC50 (GSK3β kinase) [µM] | EC50 ([1]; Homo sapiens, SW480, 96 h) [µM] | EC50 ([2]; Homo sapiens, SW480) [µM] | EC50 (IL-6; Homo sapiens, PBMC, 22 h) [µM] | SMILES | EC50 ([3]; Homo sapiens, Fibroblast, 96 h) [µM] | inhibition at 10 µM ([2]; Homo sapiens) [%] | inhibition at 10 µM (IL-6; Homo sapiens, PBMC) [%] | EC50 ([1]; SW480 cells, four days, CellTiter-Glo) [µM] | percent inhibition at 10 μM ([1]; at 10 μM, given for EC50 of >10 μM, SW480 cell viability) [%] | EC50 ([2]; SW480 Sp5-Luc reporter cells, 36 to 48 hours) [µM] | EC50 (IL-6; huPBMCs, LPS 50 ng/mL, 22 hours, curves starting from 10 μM) [µM] | percentage in parentheses after EC50 >10 (IL-6; huPBMCs, LPS, given beside >10 μM, meaning not given) [%] | EC50 ([3]; LL29 fibroblasts from IPF patients, TGF-β1 20 ng/mL, 4 days, curves from 10 μM to 0.94 nM) [µM] | percentage in parentheses after EC50 >10 ([3]; LL29 fibroblasts, TGF-β1, given beside >10 μM, meaning not given) [%] | inhibition at 10 µM ([1]; Homo sapiens) [%] | inhibition at 10 µM ([3]; Homo sapiens, Fibroblast) [%]
11 | 0.067 | 0.166 | 0.466 | 0.388 | 3.72 | Cn1cc(-c2ccc3cnc(NC(=O)c4coc(C5CCNCC5)n4)cc3n2)cn1 [Compound 241, N-(2-(1-Methyl-1H-pyrazol-4-yl)-1,6-naphthyridin-7-yl)-2-(piperidin-4-yl) oxazole-4-carboxamide] | 1.58 |  |  |  |  |  |  |  |  |  |  | 
12 | 0.06 | 6.85 | 0.541 | 0.268 | 3.62 | CN1CCC(c2nc(C(=O)Nc3cc4nc(-c5cnn(C)c5)ccc4cn3)co2)CC1 [Compound 242, N-(2-(1-Methyl-1H-pyrazol-4-yl)-1,6-naphthyridin-7-yl)-2-(1-methylpiperidin-4-yl)oxazole-4-carboxamide] | 1.42 |  |  |  |  |  |  |  |  |  |  | 
13 | 0.067 | 0.255 | > 10 | > 10 | > 10 | CNC(=O)c1ccc(C(=O)Nc2cc3nc(-c4cn(C)nn4)ccc3cn2)cn1 [Compound 372, N^2-Methyl-N^5-(2-(1-methyl-1H-1,2,3-triazol-4-yl)-1,6-naphthyridin-7-yl) pyridine-2,5-dicarboxamide] | 3.64 | 48.7 | 0 |  |  |  |  |  |  |  | 23.2 | 
14 | 0.121 | 0.036 | 2.37 | 1.35 | 3.66 | Cn1cncc1-c1ccc2cnc(NC(=O)C3CCC(F)(F)CC3)cc2n1 [Compound 400, 4,4-Difluoro-N-(2-(1-methyl-1H-imidazol-5-yl)-1,6-naphthyridin-7-yl) cyclohexane-1-carboxamide] | 1.48 |  |  |  |  |  |  |  |  |  |  | 
15 | > 10 | > 10 | 3.25 | 6.06 | > 10 | CN1CCC(Oc2cccc(C(=O)Nc3cc4nc(-c5cnco5)ccc4cn3)c2)CC1 [Compound 591, 3-((1-Methylpiperidin-4-yl)oxy)-N-(2-(oxazol-5-yl)-1,6-naphthyridin-7-yl)benzamide] | > 10 |  | 0 |  |  |  |  |  |  |  |  | 13.3
16 | 1.01 | > 10 | > 10 | > 10 | 6.73 | CN1CCC(C(=O)Nc2cc3nc(-c4cnsc4)ccc3cn2)CC1 [Compound 692, N-(2-(Isothiazol-4-yl)-1,6-naphthyridin-7-yl)-1-methylpiperidine-4-carboxamide] | > 10 | 38.6 |  |  |  |  |  |  |  |  | 28.7 | 3.8
17 | 0.203 | > 10 | 4.38 | 3.97 | > 10 | CC(C)Nc1cncc(-c2ccc3cnc(NC(=O)c4cn(C5CCNCC5)nn4)cc3n2)n1 [Compound 862, N-(2-(6-(isopropylamino)pyrazin-2-yl)-1,6-naphthyridin-7-yl)-1-(piperidin-4-yl)-1H-1,2,3-triazole-4-carboxamide] | 5.03 |  | 5.6 |  |  |  |  |  |  |  |  | 
18 | 0.388 | > 10 | > 10 | > 10 | > 10 | CC(C)Nc1cncc(-c2ccc3cnc(NC(=O)c4cn(C5CCN(CCF)CC5)nn4)cc3n2)n1 [Compound 863, 1-(1-(2-fluoroethyl)piperidin-4-yl)-N-(2-(6-(isopropylamino)pyrazin-2-yl)-1,6-naphthyridin-7-yl)-1H-1,2,3-triazole-4-carboxamide] | > 10 | 29.7 | 7 |  |  |  |  |  |  |  | 27.5 | 41
19 | > 10 | > 10 | > 10 | > 10 | > 10 | Cn1cc(-c2ccc3cnc(NC(=O)[C@H]4CCCN4)nc3c2)cn1 [Compound 969, (R)—N-(7-(1-Methyl-1H-pyrazol-4-yl)quinazolin-2-yl)pyrrolidine-2-carboxamide] | > 10 | 4.2 | 4.1 |  |  |  |  |  |  |  | 16.3 | 40.2
